In US7723370B2, “1, 2-diaryl pyrazoles useful as analgetic and antiinflammatory agents” (Richter Gedeon Vegyeszeti Gyar RT., priority 2005, dated 2010):
Values joined by “and” are separate entries in the source; they are usually repeats but may differ in a detail not shown here. Equal values may be shown once. Marks after values point to notes of the source that are not given here.

Experiments:
Format in all cases: in vivo, rat
[1] = system: carrageenan induced chronic hyperalgesia; experiment: Carrageenan induced chronic hyperalgesia model in rats (Randall-Selitto)
[2] = system: alcohol induced mucosa injury; experiment: Gastric lesions induced by acidified alcohol in rats; settings: for Ulcer index: 40 minutes before ethanol+HCl, n = 10
Method: Male Wistar rats weighing 140-160 g were treated p.o. with a 1:0.02 mixture of dry ethanol and concentrated HCl (0.5 ml) in order to induce gastric lesions. One hour later the animals were euthanized with ether and the stomach excised along its greater curvature, the mucosa was examined for the presence of lesions.
Severity of lesions: • 1: petechiae or erosion with length of 1 mm • 2: erosion with length between 2 and 3 mm • 3: erosion with length between 3 and 4 mm • 4: erosion with length between 4 and 5 mm
If the lesion was longer than 5 mm, it was scored 4 point as many times as the total length of the lesion divisible by four and the rest of the length was evaluated according to the above scale. The degree of injury of mucosa was characterized by ulcer index. Ulcer index (severity of lesion×number of lesion) was calculated for every animal and the degree of injury of mucosa in the groups of tested animals was characterized by the mean of ulcer index of different groups of animals.
Test compounds were given p.o. 40 minutes before the ethanol+HCl treatment

[3] = system: myocardial ischemia-reperfusion induced injury; experiment: Myocardial ischemia-reperfusion induced injury in rats (cardioprotective effect); settings: 30 mg/kg i.p. 30 minutes before occlusion; control group 90%
Method: Effect of compound of Example 5 and celecoxib was determined in experimental myocardial ischemia-reperfusion induced injury.
Myocardial infarction was produced in male, SPRD CFY rats of 300-360 g by surgical occlusion of left anterior descending coronary artery. Briefly, the animals were anesthetized with pentobarbital (60 mg/kg i.p.) and the chest was opened, the left coronary artery was ligated for 6 minutes followed by reperfusion. Test compounds were administered i.p. in 30 and 60 mg/kg dose 30 minutes before occlusion of the coronary artery. The control group was treated with vehicle (5% TWEEN 80 in isotonic NaCl, […]).

[4] = system: carrageenan induced paw oedema; experiment: Inhibition of carrageenan induced oedema in rats; settings: for ED30: p.o.
Method: The treated paw was immersed up to the tibio-tarsal articulation into the chamber and the volume of displaced liquid was determined as the degree of the inflammation. Degree of inflammation (ml)=volume after the CARR treatment (ml)−volume before the CARR treatment (ml)
The degree of the anti-inflammatory effect of the treated group (which obtained test agent) was compared to that of the control group (which obtained only vehicle). The test compound and the vehicle were given orally by blunt-ended needle cannula one hour before the CARR treatment. The volume of the treated paw was measured at 3 and 5 hours after the CARR treatment and the change in the degree of inflammation in % was calculated according to the following formula: Anti-inflammatory activity %=100×[control group (ml)−treated group (ml)/control group (ml)]
[…] Anti-inflammatory activity of the compounds was determined in % at 4 and 6 hours after p.o. treatment and ED30 was calculated.

[5] = system: carrageenan induced chronic hyperalgesia; experiment: Carrageenan induced chronic hyperalgesia model in rats (Randall-Selitto); remark: listed apart in the source
Method: (§1) Oedema (inflammation) was induced by subcutaneous injection of carrageenan (CARR) suspension in the subplantar region of the right hind paw of male Wistar rats, weighted 140-190 g (n=8-12 animal/group). The nociceptive thresholds of the inflamed hind paw after painful mechanical stimuli were measured with analgesimeter (Ugo Basile, type: 37215, Italy). The apparatus is suitable for the measuring of the extent and the latency of the pain reaction threshold of the sensitized paw after painful stimuli. The analgesics elevate the low pain reaction threshold of inflamed paw and the degree of its antinociceptive effect is expressed in reversal %.
(§2) An increasing pressure was applied to the paw and the withdrawal threshold was determined as the first sign (squeaking and/or struggling) of pain response. The pressure threshold was shown in grams. The average value of the hind paw withdrawal obtained with untreated right paw was regarded as the basal hind paw withdrawal (average 80-110 grams.) After determining the baseline threshold the animals received carrageenan injection that produced an intense inflammation associated with hyperalgesia. The mechanical threshold was determined at various times to establish the magnitude and duration of the hyperalgesia. The maximum reduction in threshold was measured 2-3 h after injection (the pain threshold of the inflamed paw is 20-30 g, which was decreased by 65-80% in comparing to the basic value).
(§3) Acute hvneralgesia model: the animals were treated with the test compounds and celecoxib (10 and 30 mg/kg p.o.) one hour after CARR treatment (100 μl 2% suspension). Pain threshold was measured at 2 and 4 hours after the treatment. Chronic hyperalgesia model: extended inflammation and decreased pain threshold were induced with higher dose of CARR. Pain threshold of inflamed paw was measured 24 hours after CARR treatment (150 μl, 2% suspension) then test compound and Celecoxib (30 mg/kg p.o.) were given to the animals. Pain threshold of treated paw was measured from 30 minutes till 3 hours after treatment.
(§4) Control groups in both models after CARR treatment were treated with vehicle p.o. at the same intervals as the test compounds. In both models the analgesic effect of the compounds was expressed in the reversal (%) of the decrease of the pain threshold. Reversal %=[mean of treated groupTxh(g)−treated groupT0h(g)]/[basic mean of treated groupT-1h(g)−treated groupT0h(g)] • T−1 h=mean of the pain threshold of paw before CARR treatment in acute model (g) • T0h=mean of the pain threshold before treatment 1 hour after CARR treatment in acute model (g) • T×h=pain threshold after CARR treatment in the measuring times (1 h, 2 h, 3 h) in acute model (g)

[6] = system: carrageenan induced acute hyperalgesia; experiment: Carrageenan induced acute hyperalgesia in rats (Randall-Selitto model)
Method: as §1, §2, §3, §4

[7] = system: acetic acid induced chronic gastric ulcer; experiment: Acetic acid induced chronic gastric ulcer in rats; settings: for Area of ulcer (mm^2) / Change of bodyweight (g) + (increase) − (decrease): 30 mg/kg p.o. for seven days; for Recovery of acetic acid induced ulcer: p.o. for seven days
Method: In our experiments the method […] of Okabe et al was used. Male Wistar rats of 150-170 g were narcotize part of the stomach.
The test compound was given p.o. on the fifth day after the operation for seven days. The animals were euthanized with ether after 24 hours of the last dose and the abdomen was macroscopically examined (exravasation, accretion), the stomach was excised and the diameters of ulcers were measured.

[8] = 3 mg/kg p.o., 4 hours after treatment
[9] = 3 mg/kg p.o., 6 hours after treatment
[10] = 10 mg/kg p.o., 4 hours after treatment
[11] = 10 mg/kg p.o., 6 hours after treatment
[12] = 30 mg/kg p.o., 4 hours after treatment
[13] = 30 mg/kg p.o., 6 hours after treatment
[14] = chronic model, 30 mg/kg p.o., 30 min
[15] = chronic model, 30 mg/kg p.o., 1 hour
[16] = chronic model, 30 mg/kg p.o., 2 hour
[17] = chronic model, 30 mg/kg p.o., 3 hour
[18] = inflammation induced chronic hyperalgesia model

SMILES	Analgesic effect (reversal %) after p.o. treatment ([1]; 10 mg/kg p.o., 30 min) [%]	Analgesic effect (reversal %) after p.o. treatment ([1]; 10 mg/kg p.o., 1 hour) [%]	Analgesic effect (reversal %) after p.o. treatment ([1]; 10 mg/kg p.o., 2 hour) [%]	Analgesic effect (reversal %) after p.o. treatment ([1]; 30 mg/kg p.o., 4 hour) [%]	Ulcer index ([2]; 15 mg/kg p.o.)	Ulcer index ([2]; 30 mg/kg p.o.)	Ulcer index ([2]; 60 mg/kg p.o.)	Inhibiton of carrageenan induced edema % [4, 8] [%]	Inhibiton of carrageenan induced edema % [4, 9] [%]	Inhibiton of carrageenan induced edema % [4, 10] [%]	Inhibiton of carrageenan induced edema % [4, 11] [%]	Inhibiton of carrageenan induced edema % [4, 12] [%]	Inhibiton of carrageenan induced edema % [4, 13] [%]	ED30 ([4]; 4 hours after treatment)	ED30 ([4]; 6 hours after treatment) [mg/kg]	Analgesic effect (reversal %) after p.o. treatment [5, 14] [%]	Analgesic effect (reversal %) after p.o. treatment [5, 15] [%]	Analgesic effect (reversal %) after p.o. treatment [5, 16] [%]	Analgesic effect (reversal %) after p.o. treatment [5, 17] [%]	Analgesic effect (reversal %) after p.o. treatment ([6]; 10 mg/kg p.o., 1 hour) [%]	other results
Cc1ccc(-c2cc(C(F)(F)F)nn2-c2ccc(S(=O)(=O)NOC(C)C(=O)O)cc2)cc1 (racemic) [Example 5, (R,S)-2-[4-(5-p-methylphenyl-3-trifluoromethyl-pyrazol-1-yl)-benzensulfonylamino-oxy]-propionic acid]	23	22	28	19	43.0 ± 4.4	35.0 ± 4.4	15.8 ± 2.8	21 ± 3	20 ± 3	40 ± 4	34 ± 5	49 ± 5	40 ± 4	5.7 mg/kg	8.4	42	54	34	19	24	Analgesic effect (reversal %) after p.o. treatment ([1]; 10 mg/kg p.o., 3 hour): 14%; Analgesic effect (reversal %) after p.o. treatment ([1]; 10 mg/kg p.o., 4 hour): 11%; occurrence of serious, not mortal ventricular fibrillation during reperfusion [3]: 60%; anti-inflammatory activity compared with celecoxib ([4]; CARR induced oedema test): significantly (p<0.05) higher; analgesic effect [5, 18]: significant analgesic effect (p<0.01); duration of action compared with the reference compound [5, 18]: several hours longer; Analgesic effect (reversal %) after p.o. treatment ([6]; 10 mg/kg p.o., 2 hour): 30%; Analgesic effect (reversal %) after p.o. treatment ([6]; 10 mg/kg p.o., 3 hour): 15%; Analgesic effect (reversal %) after p.o. treatment ([6]; 30 mg/kg p.o., 1 hour): 89%; Analgesic effect (reversal %) after p.o. treatment ([6]; 30 mg/kg p.o., 2 hour): 59%; Analgesic effect (reversal %) after p.o. treatment ([6]; 30 mg/kg p.o., 3 hour): 35%; Area of ulcer (mm^2) [7]: 2.4 ± 0.7 mm^2; Change of bodyweight (g) + (increase) − (decrease) [7]: +43 ± 5 g; Recovery of acetic acid induced ulcer [7]: did not influence it
Cc1ccc(-c2cc(C(F)(F)F)nn2-c2ccc(S(N)(=O)=O)cc2)cc1 [Celecoxib, reference compound]	24	17	0	20	80.6 ± 2.3	49.4 ± 4.5	44.4 ± 6.4	16 ± 3	12 ± 4	24 ± 4	18 ± 2	32 ± 5	26 ± 4	23 mg/kg and 23.0 mg/kg	>30	54	34	34	26	0	effect on alcohol induced mucosa injury ([2]; p.o.): inhibited the alcohol induced mucosa injury; anti-inflammatory activity as compared to the control group ([4]; 6 hours after the treatment): less than 30%; analgesic effect, reversal ([5]; chronic model, 30 mg/kg p.o., time not stated): 54%; Analgesic effect (reversal %) after p.o. treatment ([6]; 10 mg/kg p.o., 2 hour): 0%; Analgesic effect (reversal %) after p.o. treatment ([6]; 10 mg/kg p.o., 3 hour): 0%; Analgesic effect (reversal %) after p.o. treatment ([6]; 30 mg/kg p.o., 1 hour): 24%; Analgesic effect (reversal %) after p.o. treatment ([6]; 30 mg/kg p.o., 2 hour): 3%; Analgesic effect (reversal %) after p.o. treatment ([6]; 30 mg/kg p.o., 3 hour): 0%; analgesic effect, reversal ([6]; 30 mg/kg p.o., time not stated): 24%; Area of ulcer (mm^2) [7]: 8.2 ± 2.0* mm^2; Change of bodyweight (g) + (increase) − (decrease) [7]: +32 ± 4 g; Recovery of acetic acid induced ulcer [7]: inhibited significantly
